One data set concerns the target T1, KIT wt (Homo sapiens, UniProt P10721).
T1 construct: made in house; host or cells: Sf9 insect cells (baculovirus)
Nature of the data set: 33PanQinase Activity Assay, KIT wt. Conditions: recombinant human protein kinase, 1 μM [γ-33P]-ATP, 30° C. 80 minutes. The class given is biochemical. As to the method:
(§1) The effect of the thioether derivatives 8a-v and 9a-i was tested on recombinant, human protein kinases. All protein kinases were expressed in Sf9 insect cells as human recombinant GST-fusion proteins or as His-tagged proteins by means of the baculovirus expression system. Protein kinases were purified by affinity chromatography using either GSH-agarose or Ni-NTH-agarose. The purity and identity of each was checked by SDS-PAGE/silver staining and by western blot analysis with specific antibodies.
(§2) A proprietary protein kinase assay (^33PanQinase® Activity Assay) was used for measuring the kinase activity. All kinase assays were performed in 96-well FlashPlates™ in a 50 μl reaction volume. The assay for all enzymes contained 60 mM HEPES-NaOH, pH 7.5, 3 mM MgCl2, 3 mM MnCl2, 3 μM Na-orthovanadate, 1.2 mM DTT, 50 μg/ml PEG20000 and 1 μM [γ-^33P]-ATP (approx. 5×10^5 cpm per well).
(§3) The reaction cocktails were incubated at 30° C. for 80 minutes. The reaction was stopped with 50 μl of 2% (v/v) H3PO4, plates were aspirated and washed two times with 200 μl of 0.9% (w/v) NaCl. Incorporation of ^33Pi was determined with a microplate scintillation counter. All assays were performed with a BeckmanCoulter/Sagian robotic system.

Another data set deals with T2, ALK (Homo sapiens, UniProt Q9UM73).
T2 construct: made in house; host or cells: Sf9 insect cells (baculovirus)
T2 sequence (Q9UM73 19-1620): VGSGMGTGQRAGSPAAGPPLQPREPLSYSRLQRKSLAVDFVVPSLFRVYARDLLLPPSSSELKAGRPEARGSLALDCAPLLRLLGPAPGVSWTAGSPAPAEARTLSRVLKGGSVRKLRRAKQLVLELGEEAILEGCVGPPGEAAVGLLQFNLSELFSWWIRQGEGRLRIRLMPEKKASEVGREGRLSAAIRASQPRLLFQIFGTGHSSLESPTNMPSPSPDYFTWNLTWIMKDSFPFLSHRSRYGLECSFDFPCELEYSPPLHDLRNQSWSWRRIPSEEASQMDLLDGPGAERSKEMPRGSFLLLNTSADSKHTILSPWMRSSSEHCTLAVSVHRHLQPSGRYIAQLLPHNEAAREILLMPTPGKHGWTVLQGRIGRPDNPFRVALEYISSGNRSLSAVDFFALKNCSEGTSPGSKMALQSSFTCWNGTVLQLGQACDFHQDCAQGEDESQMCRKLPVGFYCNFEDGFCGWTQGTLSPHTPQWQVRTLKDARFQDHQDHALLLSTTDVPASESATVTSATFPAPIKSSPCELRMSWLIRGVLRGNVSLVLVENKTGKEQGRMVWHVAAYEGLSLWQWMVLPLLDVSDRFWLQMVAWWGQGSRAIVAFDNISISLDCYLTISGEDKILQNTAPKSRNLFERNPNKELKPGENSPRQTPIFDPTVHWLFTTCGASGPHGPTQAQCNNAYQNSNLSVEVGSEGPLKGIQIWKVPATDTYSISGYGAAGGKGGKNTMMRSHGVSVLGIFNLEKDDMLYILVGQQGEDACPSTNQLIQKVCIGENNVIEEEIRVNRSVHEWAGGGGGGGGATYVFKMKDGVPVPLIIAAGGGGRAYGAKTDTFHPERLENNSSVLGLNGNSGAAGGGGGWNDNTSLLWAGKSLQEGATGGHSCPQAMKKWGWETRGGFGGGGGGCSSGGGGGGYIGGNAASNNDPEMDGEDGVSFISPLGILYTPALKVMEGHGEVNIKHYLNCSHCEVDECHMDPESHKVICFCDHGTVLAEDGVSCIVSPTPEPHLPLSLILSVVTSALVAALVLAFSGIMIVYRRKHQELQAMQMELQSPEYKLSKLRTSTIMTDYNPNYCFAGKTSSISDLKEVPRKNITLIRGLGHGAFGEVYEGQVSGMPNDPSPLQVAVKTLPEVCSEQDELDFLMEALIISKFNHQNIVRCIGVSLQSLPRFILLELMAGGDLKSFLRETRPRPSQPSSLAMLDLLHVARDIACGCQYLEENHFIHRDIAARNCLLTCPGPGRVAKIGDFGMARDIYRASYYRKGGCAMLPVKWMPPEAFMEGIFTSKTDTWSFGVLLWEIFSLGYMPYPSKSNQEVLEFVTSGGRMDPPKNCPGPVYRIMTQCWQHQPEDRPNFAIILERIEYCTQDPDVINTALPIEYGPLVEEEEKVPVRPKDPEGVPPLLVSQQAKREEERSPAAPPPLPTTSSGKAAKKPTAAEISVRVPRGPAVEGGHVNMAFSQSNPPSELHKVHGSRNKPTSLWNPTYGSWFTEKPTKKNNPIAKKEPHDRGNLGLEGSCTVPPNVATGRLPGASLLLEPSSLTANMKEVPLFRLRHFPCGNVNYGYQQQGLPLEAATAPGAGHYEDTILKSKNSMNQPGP
As to the kind of experiment: 33PanQinase Activity Assay, ALK. The class given is biochemical. To be noted: recombinant human protein kinase, 1 μM [γ-33P]-ATP, 30° C. 80 minutes. How it is done:
as §1, §2, §3

In the next data set the target is T3, FAK (Homo sapiens, UniProt Q05397).
T3 construct: made in house; host or cells: Sf9 insect cells (baculovirus)
T3 sequence (Q05397 whole entry): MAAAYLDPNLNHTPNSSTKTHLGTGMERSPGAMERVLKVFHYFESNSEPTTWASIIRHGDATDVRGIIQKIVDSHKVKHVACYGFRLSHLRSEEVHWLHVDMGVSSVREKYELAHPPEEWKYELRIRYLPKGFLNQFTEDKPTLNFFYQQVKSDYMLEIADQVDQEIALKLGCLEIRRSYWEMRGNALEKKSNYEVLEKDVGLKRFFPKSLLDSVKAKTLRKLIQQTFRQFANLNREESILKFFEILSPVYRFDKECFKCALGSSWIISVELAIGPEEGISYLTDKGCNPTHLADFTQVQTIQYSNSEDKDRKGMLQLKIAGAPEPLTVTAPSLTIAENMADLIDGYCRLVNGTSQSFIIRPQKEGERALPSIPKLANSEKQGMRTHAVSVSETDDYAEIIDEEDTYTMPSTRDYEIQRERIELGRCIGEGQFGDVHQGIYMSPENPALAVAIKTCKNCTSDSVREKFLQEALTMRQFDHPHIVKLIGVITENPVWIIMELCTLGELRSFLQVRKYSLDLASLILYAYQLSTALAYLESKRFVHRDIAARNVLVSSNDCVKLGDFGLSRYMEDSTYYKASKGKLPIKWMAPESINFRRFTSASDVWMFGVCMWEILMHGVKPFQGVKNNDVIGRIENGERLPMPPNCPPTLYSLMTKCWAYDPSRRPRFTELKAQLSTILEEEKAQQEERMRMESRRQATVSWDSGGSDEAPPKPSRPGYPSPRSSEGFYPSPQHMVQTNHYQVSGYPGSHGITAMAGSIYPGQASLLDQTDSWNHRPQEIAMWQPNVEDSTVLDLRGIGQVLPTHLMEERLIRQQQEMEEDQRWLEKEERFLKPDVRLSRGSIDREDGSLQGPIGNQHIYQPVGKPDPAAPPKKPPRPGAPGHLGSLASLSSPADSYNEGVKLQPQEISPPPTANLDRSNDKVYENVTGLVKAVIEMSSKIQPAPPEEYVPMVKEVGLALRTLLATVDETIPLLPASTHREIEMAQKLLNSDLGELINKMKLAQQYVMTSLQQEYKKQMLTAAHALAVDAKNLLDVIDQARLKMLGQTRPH
As to the kind of experiment: 33PanQinase Activity Assay, FAK. The class given is biochemical. Conditions: recombinant human protein kinase, 1 μM [γ-33P]-ATP, 30° C. 80 minutes. As to the method:
as §1, §2, §3

Another data set concerns the target T4, AXL (Homo sapiens, UniProt P30530).
T4 construct: made in house; host or cells: Sf9 insect cells (baculovirus)
T4 sequence (P30530 26-894): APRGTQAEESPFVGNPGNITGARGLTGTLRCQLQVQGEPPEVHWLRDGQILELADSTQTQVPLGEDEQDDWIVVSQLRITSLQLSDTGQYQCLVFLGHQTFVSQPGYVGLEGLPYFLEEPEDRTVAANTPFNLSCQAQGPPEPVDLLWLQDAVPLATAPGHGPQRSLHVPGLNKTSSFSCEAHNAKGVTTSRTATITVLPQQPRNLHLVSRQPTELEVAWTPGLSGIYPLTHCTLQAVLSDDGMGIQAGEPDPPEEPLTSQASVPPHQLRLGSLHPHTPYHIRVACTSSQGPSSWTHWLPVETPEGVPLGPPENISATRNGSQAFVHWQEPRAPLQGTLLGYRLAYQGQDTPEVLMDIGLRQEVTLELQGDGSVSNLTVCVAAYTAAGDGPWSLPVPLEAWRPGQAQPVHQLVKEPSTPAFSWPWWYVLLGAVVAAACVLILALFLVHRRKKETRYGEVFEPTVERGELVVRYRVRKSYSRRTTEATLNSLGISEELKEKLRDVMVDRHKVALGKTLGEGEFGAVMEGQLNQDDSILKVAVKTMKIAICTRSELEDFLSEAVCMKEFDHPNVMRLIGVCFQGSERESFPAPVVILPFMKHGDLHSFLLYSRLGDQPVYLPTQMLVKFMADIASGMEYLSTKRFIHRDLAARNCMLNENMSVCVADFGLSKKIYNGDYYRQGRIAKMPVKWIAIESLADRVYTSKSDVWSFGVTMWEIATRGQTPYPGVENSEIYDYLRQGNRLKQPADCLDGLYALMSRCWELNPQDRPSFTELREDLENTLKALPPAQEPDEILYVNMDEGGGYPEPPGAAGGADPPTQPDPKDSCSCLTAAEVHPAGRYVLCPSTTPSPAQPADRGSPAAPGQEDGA
Nature of the data set: 33PanQinase Activity Assay, AXL. Conditions: recombinant human protein kinase, 1 μM [γ-33P]-ATP, 30° C. 80 minutes. The class given is biochemical. As to the method:
as §1, §2, §3

The next data set deals with T5, SRC (Homo sapiens, UniProt P12931).
T5 construct: made in house; host or cells: Sf9 insect cells (baculovirus)
T5 sequence (P12931 whole entry): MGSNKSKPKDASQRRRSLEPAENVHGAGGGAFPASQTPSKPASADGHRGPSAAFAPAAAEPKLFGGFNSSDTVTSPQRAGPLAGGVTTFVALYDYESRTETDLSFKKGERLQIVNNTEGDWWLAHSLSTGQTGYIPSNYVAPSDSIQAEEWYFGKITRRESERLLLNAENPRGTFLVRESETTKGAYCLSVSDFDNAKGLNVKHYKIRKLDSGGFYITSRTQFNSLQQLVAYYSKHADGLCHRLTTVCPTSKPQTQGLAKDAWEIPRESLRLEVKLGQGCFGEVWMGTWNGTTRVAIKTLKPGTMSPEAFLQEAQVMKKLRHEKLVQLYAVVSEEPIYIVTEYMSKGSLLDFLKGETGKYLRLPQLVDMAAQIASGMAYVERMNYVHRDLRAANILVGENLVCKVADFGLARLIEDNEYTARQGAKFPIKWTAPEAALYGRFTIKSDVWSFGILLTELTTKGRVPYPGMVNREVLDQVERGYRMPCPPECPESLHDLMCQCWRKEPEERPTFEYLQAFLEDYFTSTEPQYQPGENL
Nature of the data set: 33PanQinase Activity Assay, SRC. The class given is biochemical. To be noted: recombinant human protein kinase, 1 μM [γ-33P]-ATP, 30° C. 80 minutes. As to the method:
as §1, §2, §3

Bounds are passed on as bounds.

Results on 22 compounds are retold here after patent publication US9925193B2, “Thioether derivatives as protein kinase inhibitors” (KTB TUMORFORSCHUNGSGESELLSCHAFT MBH, priority 2012, dated 2018).

T1 sequence (P10721 26-976): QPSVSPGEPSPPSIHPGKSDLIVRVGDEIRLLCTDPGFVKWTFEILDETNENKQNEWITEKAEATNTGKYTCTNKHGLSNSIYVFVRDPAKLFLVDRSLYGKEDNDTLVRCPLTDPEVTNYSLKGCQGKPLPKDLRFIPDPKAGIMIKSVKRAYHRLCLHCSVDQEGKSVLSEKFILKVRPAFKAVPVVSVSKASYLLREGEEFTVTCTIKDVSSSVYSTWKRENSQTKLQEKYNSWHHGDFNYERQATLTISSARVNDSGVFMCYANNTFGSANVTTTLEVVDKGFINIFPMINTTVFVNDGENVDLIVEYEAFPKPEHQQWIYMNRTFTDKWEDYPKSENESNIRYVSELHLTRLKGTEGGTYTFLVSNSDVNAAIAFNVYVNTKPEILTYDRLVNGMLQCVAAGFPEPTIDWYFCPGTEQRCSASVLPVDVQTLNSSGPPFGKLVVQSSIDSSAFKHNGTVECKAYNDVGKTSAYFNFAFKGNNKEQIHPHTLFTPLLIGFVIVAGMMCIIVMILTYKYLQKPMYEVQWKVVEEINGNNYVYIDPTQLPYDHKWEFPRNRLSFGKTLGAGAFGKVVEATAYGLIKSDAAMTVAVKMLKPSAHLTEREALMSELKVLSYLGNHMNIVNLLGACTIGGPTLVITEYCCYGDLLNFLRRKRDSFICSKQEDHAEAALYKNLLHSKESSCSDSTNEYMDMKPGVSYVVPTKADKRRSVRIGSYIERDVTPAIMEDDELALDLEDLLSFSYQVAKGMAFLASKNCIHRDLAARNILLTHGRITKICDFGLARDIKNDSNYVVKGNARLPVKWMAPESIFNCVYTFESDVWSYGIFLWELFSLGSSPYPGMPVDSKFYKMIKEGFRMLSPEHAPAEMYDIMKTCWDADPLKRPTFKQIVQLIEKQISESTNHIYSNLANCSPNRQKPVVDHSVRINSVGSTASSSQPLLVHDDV

In the case of `O=C1CCCCCN1Cc1nnc(Sc2ncnc3cc(-c4ccc(Cl)cc4)sc23)o1` [Compound 9a], the IC50 on KIT wt worked out at 0.608 µM; on ALK, 2.16 µM; at FAK it was 8.93 µM; at AXL it was 1.63 µM.

In the case of `c1ccc(-c2nc3c(Sc4nnc(-c5ccncc5)o4)ncnc3[nH]2)cc1` [Compound 8s, 2-[(8-Phenyl-9H-purin-6-yl)thio]-5-(pyridin-4-yl)-1,3,4-oxadiazole], the melting point is 250 to 251 °C. The 50% inhibitory concentration (IC50) at ALK stood at 27 µM. Further, the IC50 on SRC was determined as 19 µM. Besides, the IC50 on FAK worked out at 26 µM. Further, the IC50 at AXL turned out to be 24 µM.

Turning to `COc1ccc(-c2cc3ncnc(Sc4nnnn4C4CC4)c3s2)cc1` [Compound 9e], the IC50 on KIT wt is 1.3 µM; on ALK it was 2.76 µM; at FAK, 7.89 µM; at AXL it was 9.76 µM.

As to `Fc1ccc(-c2cc3ncnc(Sc4nnc(CN5CCOCC5)o4)c3s2)cc1` [Compound 8d, 4-{[5-({6-[4-Fluorophenyl]thieno[3,2-d]pyrimidin-4-yl}thio)-1,3,4-oxadiazol-2-yl]methyl}morpholine], the IC50 on KIT wt was found to be 3.85 µM; on ALK, 5.59 µM; at AXL it was 7.66 µM.

In the case of `CN(C)Cc1nnc(Sc2ncnc3cc(-c4ccc(F)cc4)sc23)o1` [Compound 8c, 1-{5-[(6-{4-Fluorophenyl}thieno[3,2-d]pyrimidin-4-yl)thio]-1,3,4-oxadiazol-2-yl}-N,N-dimethylmethanamine], the melting point lay in the range of 170 to 172 °C. In addition, the IC50 at KIT wt is 2.76 µM. The IC50 at ALK came out at 6.54 µM. Further, the IC50 at AXL turned out to be 12.3 µM.

Turning to `COc1ccc(-c2cc3ncnc(Sc4nnc(-c5ccc(Cl)cc5)o4)c3s2)cc1` [Compound 8n, 2-(4-Chlorophenyl)-5-{[6-(4-methoxyphenyl)thieno[3,2-d]pyrimidin-4-yl]thio}-1,3,4-oxadiazole], the melting point lay in the range of 221 to 223 °C. Also, at ALK, the IC50 was 1 µM. Also, the IC50 on SRC was found to be 0.55 µM. In addition, the IC50 at FAK turned out to be 1.4 µM. Moreover, on AXL, the IC50 came to 2.7 µM.

For `COc1ccc(-c2cc3ncnc(Sc4nnc(-c5ccc(C(F)(F)F)cc5)o4)c3s2)cc1` [Compound 8o, 2-{[6-(4-Methoxyphenyl)thieno[3,2-d]pyrimidin-4-yl]thio}-5-[4-(trifluoro-methyl)phenyl]-1,3,4-oxadiazole], the melting point was in the range of 227 to 228 °C. In addition, the IC50 on ALK came to 0.88 µM. The IC50 on SRC came out at 0.84 µM. Also, the IC50 at FAK was determined as 1.7 µM. Also, the IC50 on AXL is 2.4 µM.

In the case of `COc1ccc(-c2cc3ncnc(Sc4nnc(-c5ccccc5)o4)c3s2)cc1` [Compound 8m, 2-{[6-(4-Methoxyphenyl)thieno[3,2-d]pyrimidin-4-yl]thio}-5-phenyl-1,3,4-oxadiazole], the melting point lay in the range of 213 to 215 °C. The IC50 at ALK was determined as 0.97 µM. Besides, the IC50 on SRC stood at 0.032 µM. The IC50 on FAK stood at 0.83 µM. The IC50 at AXL came to 0.94 µM.

Take `Fc1ccc(-c2cc3ncnc(Sc4nnc(-c5ccccc5)o4)c3s2)cc1` [Compound 8a, 2-{[6-(4-Fluorophenyl)thieno[3,2-d]pyrimidin-4-yl]thio}-5-phenyl-1,3,4-oxadiazole]: the melting point worked out at 223 °C. The IC50 at KIT wt was 1.04 µM. The IC50 at ALK was determined as 0.987 µM. Also, the IC50 on AXL was found to be 3.16 µM.

Regarding `Cn1nnnc1Sc1ncnc2cc(-c3ccc(F)cc3)sc12` [Compound 9d], the IC50 at KIT wt worked out at 2.41 µM; on ALK, 13.6 µM; on FAK, 13.6 µM; at AXL, 28.9 µM.

Compound `c1ccc(-c2nc3c(Sc4nnc(-c5ccco5)o4)ncnc3[nH]2)cc1` [Compound 8u, 2-(Furan-2-yl)-5-[(8-phenyl-9H-purin-6-yl)thio]-1,3,4-oxadiazole] gave a melting point of 224 to 225 °C. The half-inhibitory concentration (IC50) on ALK turned out to be 22 µM. Further, the IC50 at SRC was 11 µM. Besides, the IC50 on FAK is 23 µM. Further, on AXL, the IC50 came to 40 µM.

As to `COc1ccc(-c2cc3ncnc(Sc4nnnn4C)c3s2)cc1` [Compound 9g], the IC50 at KIT wt is 1.02 µM; on ALK, 2.37 µM; at FAK it was 5.99 µM; on AXL, 5.8 µM.

As for `COc1ccc(-c2cc3ncnc(Sc4nnc(-c5ccccc5C)o4)c3s2)cc1` [Compound 8p, 2-{[6-(4-methoxyphenyl)thieno[3,2-d]pyrimidin-4-yl]thio}-5-(o-tolyl)-1,3,4-oxadiazole], the melting point lay within 184 to 186 °C. Further, the half-inhibitory concentration (IC50) on ALK was found to be 0.92 µM. The concentration for half-maximal inhibition (IC50) on SRC came to 0.68 µM. Further, the concentration for half-maximal inhibition (IC50) at FAK turned out to be 1.3 µM. The IC50 at AXL turned out to be 1.9 µM.

`Fc1ccc(-c2cc3ncnc(Sc4nnc(-c5ccc6c(c5)OCO6)o4)c3s2)cc1` [Compound 9c]: the IC50 at KIT wt was 4.92 µM; on ALK it was 0.935 µM; on FAK, 3.52 µM; at AXL, 6.56 µM.

With `COc1ccc(-c2cc3ncnc(Sc4n[nH]/c(=N\C5CC5)s4)c3s2)cc1` [Compound 9h], the IC50 on KIT wt came to 0.873 µM; at ALK, 2.72 µM; on FAK, 10.5 µM; at AXL, 10.1 µM.

`Fc1ccc(-c2cc3ncnc(Sc4nnc(-c5ccncc5)o4)c3s2)cc1` [Compound 8b, 2-{[6-(4-Fluorophenyl)thieno[3,2-d]pyrimidin-4-yl]thio}-5-(pyridin-4-yl)-1,3,4-oxadiazole] came in with a melting point of 232 °C. In addition, the IC50 at KIT wt came to 1.74 µM. Further, the IC50 on ALK is 2.94 µM. At AXL, the IC50 was 2.64 µM.

In the case of `c1ccc(Cc2nnc(Sc3ncnc4[nH]c(-c5ccccc5)nc34)o2)cc1` [Compound 8t, 2-Benzyl-5-[(8-phenyl-9H-purin-6-yl)thio]-1,3,4-oxadiazole], the melting point is 198 to 199 °C. At ALK, the IC50 is 76 µM. Also, the IC50 on SRC was 32 µM. For the same compound, the IC50 at FAK was found to be 43 µM. The IC50 at AXL is greater than 100 µM.

As to `Fc1ccc(-c2cc3ncnc(Sc4nnc(CN5CCCC5)o4)c3s2)cc1` [Compound 9b], the IC50 on KIT wt came out at 6.48 µM; at ALK, 3.03 µM; at FAK it was 15 µM; on AXL it was 6.09 µM.

On to `Cc1nnc(Sc2ncnc3cc(-c4ccc(Cl)cc4)sc23)s1` [Compound 9i], for which the IC50 is 1.25 µM on KIT wt, 15 µM at ALK, greater than 100 µM at FAK and 41.7 µM on AXL.

Regarding `COc1ccc(-c2cc3nc(N)nc(Sc4nnc(-c5ccc(Cl)cc5)o4)c3s2)cc1` [Compound 8r, 4-{[5-(4-Chlorophenyl)-1,3,4-oxadiazol-2-yl]thio}-6-(4-methoxyphenyl)thieno[3,2-d]pyrimidin-2-amine], the melting point lay in the range of 206 to 208 °C. Further, the IC50 on ALK is 0.73 µM. In addition, the IC50 at SRC amounted to 0.65 µM. In addition, the IC50 at FAK turned out to be 0.9 µM. On AXL, the IC50 stood at 1.2 µM.

Take `COCCNc1nnc(Sc2ncnc3cc(-c4ccc(OC)cc4)sc23)s1` [Compound 9f]: the IC50 at KIT wt came to 0.804 µM; on ALK it was 3.51 µM; on FAK, 16.7 µM; on AXL, 5.2 µM.

Turning to `COc1ccc(-c2cc3ncnc(Sc4nnc(-c5ccc(Cl)cc5Cl)o4)c3s2)cc1` [Compound 8q, 2-(2,4-Dichlorophenyl)-5-{[6-(4-methoxyphenyl)thieno[3,2-d]pyrimidin-4-yl]thio}-1,3,4-oxadiazole], the melting point was in the range of 213 to 215 °C. Moreover, the concentration for half-maximal inhibition (IC50) at ALK turned out to be 1.3 µM. Moreover, on SRC, the IC50 turned out to be 0.8 µM. On FAK, the IC50 came out at 1.5 µM. For the same compound, the IC50 on AXL came to 2.2 µM.
